According to ChEMBL document CHEMBL5325488, “Discovery of SMD-3040 as a Potent and Selective SMARCA2 PROTAC Degrader with Strong in vivo Antitumor Activity” (J Med Chem, 2023):

Key:
[1] = biological target: T1, von Hippel-Lindau disease tumor suppressor/SWI/SNF-related matrix-associated actin-dependent regulator of chromatin subfamily A member 2 (Homo sapiens, UniProt P51531+P40337); assay: PROTAC activity at VHL/SMARCA2 in human RKO cells assessed as induction of SMARCA2 degradation incubated for 18 hrs by Western blotting analysis; type: cell-based
Target sequence in this assay (P51531 whole entry): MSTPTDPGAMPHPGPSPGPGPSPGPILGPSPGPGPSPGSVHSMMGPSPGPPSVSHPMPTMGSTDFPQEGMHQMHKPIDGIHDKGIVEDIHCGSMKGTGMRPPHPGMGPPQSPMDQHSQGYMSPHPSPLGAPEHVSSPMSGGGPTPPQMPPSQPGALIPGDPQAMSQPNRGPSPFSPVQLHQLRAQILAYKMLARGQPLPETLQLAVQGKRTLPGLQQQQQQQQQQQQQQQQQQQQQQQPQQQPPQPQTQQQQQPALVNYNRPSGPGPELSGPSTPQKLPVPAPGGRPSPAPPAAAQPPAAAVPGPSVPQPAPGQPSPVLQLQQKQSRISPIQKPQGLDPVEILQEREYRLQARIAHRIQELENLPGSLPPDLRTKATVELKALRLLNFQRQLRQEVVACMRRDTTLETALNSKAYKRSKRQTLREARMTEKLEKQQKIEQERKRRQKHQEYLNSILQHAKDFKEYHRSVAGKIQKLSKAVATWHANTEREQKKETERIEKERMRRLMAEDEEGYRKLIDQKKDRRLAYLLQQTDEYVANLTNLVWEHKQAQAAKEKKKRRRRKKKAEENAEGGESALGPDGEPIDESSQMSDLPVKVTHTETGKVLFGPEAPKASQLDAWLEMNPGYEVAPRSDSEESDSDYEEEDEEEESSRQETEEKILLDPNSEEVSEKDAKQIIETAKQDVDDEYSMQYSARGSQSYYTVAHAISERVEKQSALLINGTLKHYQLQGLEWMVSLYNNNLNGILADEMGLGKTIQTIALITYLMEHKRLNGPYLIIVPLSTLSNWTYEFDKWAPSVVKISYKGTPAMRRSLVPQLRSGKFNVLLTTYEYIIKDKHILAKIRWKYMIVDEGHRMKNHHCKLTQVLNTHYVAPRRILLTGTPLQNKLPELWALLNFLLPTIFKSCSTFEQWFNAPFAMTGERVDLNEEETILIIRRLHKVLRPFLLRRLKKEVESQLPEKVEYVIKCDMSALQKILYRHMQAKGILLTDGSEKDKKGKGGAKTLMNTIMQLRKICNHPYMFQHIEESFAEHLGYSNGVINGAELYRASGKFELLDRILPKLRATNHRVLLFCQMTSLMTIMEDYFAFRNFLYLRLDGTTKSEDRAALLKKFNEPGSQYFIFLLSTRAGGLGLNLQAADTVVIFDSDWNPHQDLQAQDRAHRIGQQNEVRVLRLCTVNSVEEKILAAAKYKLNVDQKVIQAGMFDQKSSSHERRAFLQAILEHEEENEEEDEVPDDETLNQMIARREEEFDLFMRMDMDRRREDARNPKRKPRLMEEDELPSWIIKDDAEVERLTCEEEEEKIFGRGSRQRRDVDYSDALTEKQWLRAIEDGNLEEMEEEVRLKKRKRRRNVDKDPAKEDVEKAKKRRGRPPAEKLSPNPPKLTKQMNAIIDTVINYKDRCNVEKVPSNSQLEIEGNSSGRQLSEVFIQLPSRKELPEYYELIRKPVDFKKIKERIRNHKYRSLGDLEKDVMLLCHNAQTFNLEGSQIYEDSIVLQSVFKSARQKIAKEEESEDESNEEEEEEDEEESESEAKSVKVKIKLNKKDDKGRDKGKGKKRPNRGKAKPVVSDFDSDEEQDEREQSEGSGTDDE
Target sequence in this assay (P40337 whole entry): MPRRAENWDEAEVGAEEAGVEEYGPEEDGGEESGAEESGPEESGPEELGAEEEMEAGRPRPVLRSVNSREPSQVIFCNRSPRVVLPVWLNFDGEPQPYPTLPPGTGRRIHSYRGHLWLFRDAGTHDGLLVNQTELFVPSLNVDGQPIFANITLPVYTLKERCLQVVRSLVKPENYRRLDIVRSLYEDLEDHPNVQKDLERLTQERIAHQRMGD

[2] = biological target: T1, von Hippel-Lindau disease tumor suppressor/SWI/SNF-related matrix-associated actin-dependent regulator of chromatin subfamily A member 2; assay: PROTAC activity at VHL/SMARCA2 in human RKO cells assessed as induction of SMARCA2 degradation by measuring maximal efficacy incubated for 18 hrs by Western blotting analysis relative to control; type: cell-based
Target sequence in this assay (P40337 whole entry, looked up): as the sequence (P40337 whole entry) above
Target sequence in this assay (P51531 whole entry, looked up): as the sequence (P51531 whole entry) above

[3] = biological target: T2, von Hippel-Lindau disease tumor suppressor/SWI/SNF-related matrix-associated actin-dependent regulator of chromatin subfamily A member 4 (Homo sapiens, UniProt P51532+P40337); assay: PROTAC activity at VHL/SMARCA4 in human RKO cells assessed as induction of […] degradation incubated for 18 hrs by Western blotting analysis; type: cell-based
Target sequence in this assay (P51532 whole entry): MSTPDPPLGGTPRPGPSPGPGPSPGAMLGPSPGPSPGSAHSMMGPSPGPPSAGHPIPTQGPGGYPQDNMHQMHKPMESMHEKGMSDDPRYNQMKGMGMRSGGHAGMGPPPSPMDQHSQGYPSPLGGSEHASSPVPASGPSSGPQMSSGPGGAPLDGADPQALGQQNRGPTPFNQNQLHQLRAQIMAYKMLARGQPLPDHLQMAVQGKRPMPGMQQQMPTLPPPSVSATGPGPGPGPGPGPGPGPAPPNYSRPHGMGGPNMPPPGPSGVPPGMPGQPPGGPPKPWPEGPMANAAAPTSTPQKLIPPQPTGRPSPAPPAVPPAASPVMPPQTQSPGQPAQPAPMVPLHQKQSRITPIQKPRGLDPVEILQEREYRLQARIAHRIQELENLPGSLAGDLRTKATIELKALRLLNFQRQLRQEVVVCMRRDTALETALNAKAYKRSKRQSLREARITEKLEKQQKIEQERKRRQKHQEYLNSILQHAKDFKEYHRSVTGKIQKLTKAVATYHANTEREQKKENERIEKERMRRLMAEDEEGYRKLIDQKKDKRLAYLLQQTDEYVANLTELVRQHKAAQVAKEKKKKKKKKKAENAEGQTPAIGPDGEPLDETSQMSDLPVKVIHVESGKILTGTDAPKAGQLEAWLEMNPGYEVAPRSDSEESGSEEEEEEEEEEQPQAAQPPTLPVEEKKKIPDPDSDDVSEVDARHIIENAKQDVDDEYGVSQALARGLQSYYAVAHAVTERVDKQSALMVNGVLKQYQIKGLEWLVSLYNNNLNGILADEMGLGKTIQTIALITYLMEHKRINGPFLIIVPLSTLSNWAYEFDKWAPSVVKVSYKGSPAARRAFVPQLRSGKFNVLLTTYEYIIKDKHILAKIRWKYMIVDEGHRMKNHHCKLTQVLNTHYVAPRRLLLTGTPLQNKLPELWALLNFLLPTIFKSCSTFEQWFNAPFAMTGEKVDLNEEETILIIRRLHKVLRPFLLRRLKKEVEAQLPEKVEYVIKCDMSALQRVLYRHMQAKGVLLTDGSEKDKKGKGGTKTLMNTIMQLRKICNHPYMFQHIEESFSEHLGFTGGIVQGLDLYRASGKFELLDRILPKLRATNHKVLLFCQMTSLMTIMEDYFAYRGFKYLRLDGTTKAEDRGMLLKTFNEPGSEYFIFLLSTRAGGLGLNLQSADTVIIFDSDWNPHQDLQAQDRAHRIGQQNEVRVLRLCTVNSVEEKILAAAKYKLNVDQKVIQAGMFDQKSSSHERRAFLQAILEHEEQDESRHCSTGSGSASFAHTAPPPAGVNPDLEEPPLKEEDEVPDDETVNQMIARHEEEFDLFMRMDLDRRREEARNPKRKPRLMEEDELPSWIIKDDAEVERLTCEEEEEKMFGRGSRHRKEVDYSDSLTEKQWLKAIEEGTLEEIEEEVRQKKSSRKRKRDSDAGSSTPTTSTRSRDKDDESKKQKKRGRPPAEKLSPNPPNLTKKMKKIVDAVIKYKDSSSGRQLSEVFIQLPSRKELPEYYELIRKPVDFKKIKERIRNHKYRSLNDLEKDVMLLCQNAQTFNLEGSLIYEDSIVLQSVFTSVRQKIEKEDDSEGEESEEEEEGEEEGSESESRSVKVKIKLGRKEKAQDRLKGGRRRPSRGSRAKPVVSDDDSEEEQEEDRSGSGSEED
Target sequence in this assay (P40337 whole entry): as the sequence (P40337 whole entry) above

[4] = biological target: T2, von Hippel-Lindau disease tumor suppressor/SWI/SNF-related matrix-associated actin-dependent regulator of chromatin subfamily A member 4; assay: PROTAC activity at VHL/SMARCA4 in human RKO cells assessed as induction of […] degradation by measuring maximal efficacy incubated for 18 hrs by Western blotting analysis relative to control; type: cell-based
Target sequence in this assay (P40337 whole entry, looked up): as the sequence (P40337 whole entry) above
Target sequence in this assay (P51532 whole entry, looked up): as the sequence (P51532 whole entry) above

[5] = biological target: T1, von Hippel-Lindau disease tumor suppressor/SWI/SNF-related matrix-associated actin-dependent regulator of chromatin subfamily A member 2; assay: PROTAC activity at VHL/C-terminal HiBiT fused SMARCA2 in human HeLa cells assessed as induction of SMARCA2 degradation by measuring maximal efficacy incubated for 24 hrs by Nano-Glo HiBiT analysis relative to control; type: cell-based
Target sequence in this assay (P40337 whole entry, looked up): as the sequence (P40337 whole entry) above
Target sequence in this assay (P51531 whole entry, looked up): as the sequence (P51531 whole entry) above

[6] = biological target: T2, von Hippel-Lindau disease tumor suppressor/SWI/SNF-related matrix-associated actin-dependent regulator of chromatin subfamily A member 4; assay: PROTAC activity at VHL/C-terminal HiBiT fused SMARCA4 in human HeLa cells assessed as induction of SMARCA4 degradation incubated for 24 hrs by Nano-Glo HiBiT analysis; type: cell-based
Target sequence in this assay (P51532 whole entry): as the sequence (P51532 whole entry) above
Target sequence in this assay (P40337 whole entry): as the sequence (P40337 whole entry) above

[7] = biological target: T2, von Hippel-Lindau disease tumor suppressor/SWI/SNF-related matrix-associated actin-dependent regulator of chromatin subfamily A member 4; assay: PROTAC activity at VHL/C-terminal HiBiT fused SMARCA4 in human HeLa cells assessed as induction of SMARCA4 degradation by measuring maximal efficacy incubated for 24 hrs by Nano-Glo HiBiT analysis relative to control; type: cell-based
Target sequence in this assay (P40337 whole entry, looked up): as the sequence (P40337 whole entry) above
Target sequence in this assay (P51532 whole entry, looked up): as the sequence (P51532 whole entry) above

[8] = biological target: T1, von Hippel-Lindau disease tumor suppressor/SWI/SNF-related matrix-associated actin-dependent regulator of chromatin subfamily A member 2; assay: PROTAC activity at VHL/C-terminal HiBiT fused SMARCA2 in human HeLa cells assessed as induction of SMARCA2 degradation incubated for 6 to 48 hrs by Nano-Glo HiBiT analysis; type: cell-based; settings: dose lower 1e-06 µM, dose upper 1.0 µM, time 6-48 hrs
Target sequence in this assay (P40337 whole entry, looked up): as the sequence (P40337 whole entry) above
Target sequence in this assay (P51531 whole entry, looked up): as the sequence (P51531 whole entry) above

[9] = biological target: T1, von Hippel-Lindau disease tumor suppressor/SWI/SNF-related matrix-associated actin-dependent regulator of chromatin subfamily A member 2; assay: PROTAC activity at VHL/C-terminal HiBiT fused SMARCA2 in human HeLa cells assessed as induction of SMARCA2 degradation at 0.000001 to 1 uM by Nano-Glo HiBiT analysis; type: cell-based; settings: dose lower 1e-06 µM, dose upper 1.0 µM, time 6-48 hrs, TDE = time-dependent effect
Target sequence in this assay (P40337 whole entry, looked up): as the sequence (P40337 whole entry) above
Target sequence in this assay (P51531 whole entry, looked up): as the sequence (P51531 whole entry) above

[10] = biological target: T2, von Hippel-Lindau disease tumor suppressor/SWI/SNF-related matrix-associated actin-dependent regulator of chromatin subfamily A member 4; assay: PROTAC activity at VHL/C-terminal HiBiT fused SMARCA4 in human HeLa cells assessed as induction of SMARCA4 degradation incubated for 6 to 48 hrs by Nano-Glo HiBiT analysis; type: cell-based; settings: dose lower 1e-05 µM, dose upper 1.0 µM, time 6-48 hrs
Target sequence in this assay (P40337 whole entry, looked up): as the sequence (P40337 whole entry) above
Target sequence in this assay (P51532 whole entry, looked up): as the sequence (P51532 whole entry) above

[11] = biological target: T2, von Hippel-Lindau disease tumor suppressor/SWI/SNF-related matrix-associated actin-dependent regulator of chromatin subfamily A member 4; assay: PROTAC activity at VHL/C-terminal HiBiT fused SMARCA4 in human HeLa cells assessed as induction of SMARCA4 degradation at 0.00001 to 1 uM by Nano-Glo HiBiT analysis; type: cell-based; settings: dose lower 1e-05 µM, dose upper 1.0 µM, time 6-48 hrs, TDE = time-dependent effect
Target sequence in this assay (P40337 whole entry, looked up): as the sequence (P40337 whole entry) above
Target sequence in this assay (P51532 whole entry, looked up): as the sequence (P51532 whole entry) above

NCI-H1299 [12] = assay: Antiproliferative activity against SMARCA4-deficient human NCI-H1299 cells assessed as cell growth inhibition measured after 7 days by WST-8 assay; type: functional; settings: NCI-H1299, 168 h, time 7 day
NCI-H838 [13] = assay: Antiproliferative activity against SMARCA4-deficient human NCI-H838 cells assessed as cell growth inhibition measured after 7 days by WST-8 assay; type: functional; settings: NCI-H838, 168 h, time 7 day
A549 [14] = assay: Antiproliferative activity against SMARCA4-deficient human A549 cells assessed as cell growth inhibition measured after 7 days by WST-8 assay; type: functional; settings: A549, 168 h, time 7 day
NCI-H1944 [15] = assay: Antiproliferative activity against SMARCA4-deficient human NCI-H1944 cells assessed as cell growth inhibition measured after 7 days by WST-8 assay; type: functional; settings: NCI-H1944, 168 h, time 7 day
NCI-H1793 [16] = assay: Antiproliferative activity against SMARCA4-deficient human NCI-H1793 cells assessed as cell growth inhibition measured after 7 days by WST-8 assay; type: functional; settings: NCI-H1793, 168 h, time 7 day
SK-MEL-5 [17] = assay: Antiproliferative activity against SMARCA4-deficient human SK-MEL-5 cells assessed as cell growth inhibition measured after 7 days by WST-8 assay; type: functional; settings: SK-MEL-5, 168 h, time 7 day
NCI-H1693 [18] = assay: Antiproliferative activity against SMARCA4-deficient human NCI-H1693 cells assessed as cell growth inhibition measured after 7 days by WST-8 assay; type: functional; settings: NCI-H1693, 168 h, time 7 day
[19] = Antiproliferative activity against SMARCA4-deficient human NCI-H1568 cells assessed as cell growth inhibition measured after 7 days by WST-8 assay; type: functional; settings: NCI-H1568, 168 h, time 7 day
NCI-H1792 [20] = assay: Antiproliferative activity against human NCI-H1792 cells expressing wild-type SMARCA2 assessed as cell growth inhibition measured after 7 days by WST-8 assay; type: functional; settings: NCI-H1792, 168 h, time 7 day
NCI-H1975 [21] = assay: Antiproliferative activity against human NCI-H1975 cells expressing wild-type SMARCA2 assessed as cell growth inhibition measured after 7 days by WST-8 assay; type: functional; settings: NCI-H1975, 168 h, time 7 day
SK-MEL-28 [22] = assay: Antiproliferative activity against human SK-MEL-28 cells expressing wild-type SMARCA2 assessed as cell growth inhibition measured after 7 days by WST-8 assay; type: functional; settings: SK-MEL-28, 168 h, time 7 day
NCI-H647 [23] = assay: Antiproliferative activity against human NCI-H647 cells expressing wild-type SMARCA2 assessed as cell growth inhibition measured after 7 days by WST-8 assay; type: functional; settings: NCI-H647, 168 h, time 7 day
NCI-H1299 [24] = assay: Antiproliferative activity against SMARCA4-deficient human NCI-H1299 cells assessed as cell growth inhibition by measuring maximal efficacy measured after 7 days by WST-8 assay relative to control; type: functional; settings: time 7 day
NCI-H838 [25] = assay: Antiproliferative activity against SMARCA4-deficient human NCI-H838 cells assessed as cell growth inhibition by measuring maximal efficacy measured after 7 days by WST-8 assay relative to control; type: functional; settings: time 7 day
A549 [26] = assay: Antiproliferative activity against SMARCA4-deficient human A549 cells assessed as cell growth inhibition by measuring maximal efficacy measured after 7 days by WST-8 assay relative to control; type: functional; settings: time 7 day
NCI-H1944 [27] = assay: Antiproliferative activity against SMARCA4-deficient human NCI-H1944 cells assessed as cell growth inhibition by measuring maximal efficacy measured after 7 days by WST-8 assay relative to control; type: functional; settings: time 7 day
NCI-H1793 [28] = assay: Antiproliferative activity against SMARCA4-deficient human NCI-H1793 cells assessed as cell growth inhibition by measuring maximal efficacy measured after 7 days by WST-8 assay relative to control; type: functional; settings: time 7 day
SK-MEL-5 [29] = assay: Antiproliferative activity against SMARCA4-deficient human SK-MEL-5 cells assessed as cell growth inhibition by measuring maximal efficacy measured after 7 days by WST-8 assay relative to control; type: functional; settings: time 7 day
NCI-H1693 [30] = assay: Antiproliferative activity against SMARCA4-deficient human NCI-H1693 cells assessed as cell growth inhibition by measuring maximal efficacy measured after 7 days by WST-8 assay relative to control; type: functional; settings: time 7 day
[31] = Antiproliferative activity against SMARCA4-deficient human NCI-H1568 cells assessed as cell growth inhibition by measuring maximal efficacy measured after 7 days by WST-8 assay relative to control; type: functional; settings: time 7 day
NCI-H1792 [32] = assay: Antiproliferative activity against human NCI-H1792 cells expressing wild-type SMARCA2 assessed as cell growth inhibition by measuring maximal efficacy measured after 7 days by WST-8 assay relative to control; type: functional; settings: time 7 day
NCI-H1975 [33] = assay: Antiproliferative activity against human NCI-H1975 cells expressing wild-type SMARCA2 assessed as cell growth inhibition by measuring maximal efficacy measured after 7 days by WST-8 assay relative to control; type: functional; settings: time 7 day
SK-MEL-28 [34] = assay: Antiproliferative activity against human SK-MEL-28 cells expressing wild-type SMARCA2 assessed as cell growth inhibition by measuring maximal efficacy measured after 7 days by WST-8 assay relative to control; type: functional; settings: time 7 day
NCI-H647 [35] = assay: Antiproliferative activity against human NCI-H647 cells expressing wild-type SMARCA2 assessed as cell growth inhibition by measuring maximal efficacy measured after 7 days by WST-8 assay relative to control; type: functional; settings: time 7 day

Q: Which results are given for `Cc1ncsc1-c1ccc([C@H](CC[C@H](C)CCN2CCC(c3ccc4c(c3)n(C3CCCC3)c3nc(=O)c5c(Br)cccc5n43)CC2)NC(=O)[C@@H]2C[C@@H](O)CN2C(=O)[C@@H](NC(=O)C2(F)CC2)C(C)(C)C)cc1`?
A: DC50 [1]: 1 nM; Emax [2]: 81%; DC50 [3]: 32 nM; Emax [4]: 67%; Emax [5]: 94%; DC50 [6]: 9 nM; Emax [7]: 92%; Activity [8]: Dose-Dependent Effect; Activity [9]: Tde; Activity [10]: Dose-Dependent Effect; Activity [11]: Tde; GI50 (NCI-H1299 [12]): 116 nM; GI50 (NCI-H838 [13]): 67 nM; GI50 (A549 [14]): 30 nM; GI50 (NCI-H1944 [15]): 13 nM; GI50 (NCI-H1793 [16]): 7.3 nM; GI50 (SK-MEL-5 [17]): 4.9 nM; GI50 (NCI-H1693 [18]): 2.8 nM; GI50 [19]: 2.8 nM; GI50 (NCI-H1792 [20]): 135 nM; GI50 (NCI-H1975 [21]): 65 nM; GI50 (SK-MEL-28 [22]): > 10000 nM; GI50 (NCI-H647 [23]): 165 nM; Imax (NCI-H1299 [24]): 74%; Imax (NCI-H838 [25]): 82%; Imax (A549 [26]): 56%; Imax (NCI-H1944 [27]): 82%; Imax (NCI-H1793 [28]): 68%; Imax (SK-MEL-5 [29]): 96%; Imax (NCI-H1693 [30]): 86%; Imax [31]: 90%; Imax (NCI-H1792 [32]): 65%; Imax (NCI-H1975 [33]): 63%; Imax (SK-MEL-28 [34]): 50%; Imax (NCI-H647 [35]): 80%
